From US20060024658A1, “Composition and methods for evaluating an organism's response to alcohol or stimulants” (priority 1998, published 2006)
Where two headings read alike, the source gives them in different places.

Tests used:
SHSY-5Y cells = test: Effects of alcohols on gene expression (array hybridization intensity) in SHSY-5Y cells, Study 1; type: cell-based, human; conditions: for Co-Activ increase in hybridization / MAP4 increase in hybridization / Na/H Anti increase in hybridization / ZNFP increase in hybridization: 50 mM alcohol, early (2 hour) response, FIG. 2B; for DBH hybridization intensity over baseline / DLK hybridization intensity over baseline / GABA-β3 hybridization intensity over baseline / NPTX2 hybridization intensity over baseline / PDGFR hybridization intensity over baseline / PTK hybridization intensity over baseline: FIG. 2A
Excerpt: Hybridization strength is given a baseline of 1 and increased intensity is expressed in as a multiple of the baseline, i.e., 2-fold, 3-fold, 4-fold etc.
Column 1 lists the presumed functional class of the gene.
Columns are similar to Table 8.

SH-SY5Y cells [1] = test system: SH-SY5Y cells
Excerpt: RNA blots were probed with ^32P-labeled inserts of human DBH, NET, DLK and MCP-1 cDNAs. Probes were synthesized by RT-PCR using SH-SY5Y total RNA as template. […] Human GAPDH cDNA probe (Clonetech) was used as an internal control for total RNA normalization.

[2] = test system: DBH protein in SH-SY5Y cells
Protocol: (§1) The relative amount of DBH protein between whole cell homogenates of control and ethanol-treated cells was determined by Western blot analysis following standard protocols using a polyclonal antibody (Calbiochem). MCP-1 production was monitored in the culture media of cells treated in the absence or presence of ethanol using the Quantikine MCP-1 immunoassay from R&D System.

[3] = test system: MCP-1 release from SH-SY5Y cells; conditions: ethanol-treated cells; FIG. 4C
Protocol: as §1

SH-SY5Y cells [4] = conditions: 150 mM ethanol, 3 days, media from last 24 h, n=3; control 0.957+/−0.49
Protocol: All HPLC apparatus was from ESA, Inc. (Chelmsford, Mass.). Following precipitation with 0.1 M perchloric acid and centrifugation over a 5000 MW cut-off centrifugal filter, culture media (10 μl aliquot) was injected onto an ESA HR-80 column (C-18, 4.6 mm×8 cm, 3 um particle size) using a Model 540 refrigerated autosampler injector and a Model 580 solvent delivery pump. […] Eluents were detected at a flow rate of 1.0 ml/min using a Model 5011 analytical cell with palladium reference electrode, a Model 5020 guard cell, and a Model 5200A Coulochem II electrochemical detector. Electrode settings were +350 mV for the guard cell, −100 mV for the pre-oxidation electrode, and +280 mV for the detection electrode. Samples were analyzed at 5 nA sensitivity and compared with a two-point monoamine standard calibration curve at 1 and 5 pg/μl using the Model 501 analysis software package.

[5] = test system: DBH mRNA in adrenal glands and brain; conditions: versus saline
Protocol: Animal studies were conducted on female DBA/2 mice (Simonsen Laboratories, Gilroy, Calif.) weighing 20-30 g at 8 weeks of age. All animals were housed individually under a 12:12 light-dark cycle at 22° C. and given ad libitum access to food and water before and after injection procedures. […] Adrenal glands were dissected out, immediately frozen into liquid nitrogen and stored at −80° C. until needed.
Aliquot of ss cDNA were then used in comparative PCR. […] We performed duplex reaction using GAPDH as an endogenous amplification standard. PCR conditions were optimized so that the amplification of both, GAPDH and DBH cDNAs were in the exponential phase.

[6] = ethanol administration; cited from earlier work
[7] = test system: human neuroblastoma SH-SY5Y cells; test: Oligonucleotide array (Affymetrix GeneChip Hu6800) gene expression profile after ethanol; conditions: 72 h
noradrenergic receptors = conditions: in vivo; cited from earlier work
SH-SY5Y cells [8] = test: Effect of dexamethasone and db-cAMP on expression of DBH, NET, DLK and MCP-1; type: cell-based, human; conditions: 1 mM; data not shown
Excerpt: Previous studies have shown that neuroblastoma cells derived from the neural crest could differentiate either towards a more neuronal phenotype in the presence of retinoic acid, or a chromaffin-like phenotype in the presence of glucocorticoids or dibutyryl-cyclic AMP (db-cAMP). […] Therefore, we tested the effect of dexamethasone and db-cAMP on the expression of our 4 candidate genes.

[9] = 50, 100, 150 mM ethanol, FIG. 3B

## CCO [ethanol]
SHSY-5Y cells
  Co-Activ increase in hybridization: 4 fold
  MAP4 increase in hybridization: 3 fold
  Na/H Anti increase in hybridization: ~6 fold
  ZNFP increase in hybridization: 7.5 fold
SHSY-5Y cells; 50 mM ethanol
  DBH hybridization intensity over baseline: 3 fold
SHSY-5Y cells; 50 mM ethanol, baseline = 1
  DLK hybridization intensity over baseline: just over the baseline
  GABA-β3 hybridization intensity over baseline: just over the baseline
  NPTX2 hybridization intensity over baseline: just over the baseline
  PDGFR hybridization intensity over baseline: just over the baseline
  PTK hybridization intensity over baseline: just over the baseline
SHSY-5Y cells; 100 mM ethanol
  DBH hybridization intensity over baseline: 5 fold
  DLK hybridization intensity over baseline: 3 fold
  GABA-β3 hybridization intensity over baseline: around 2 fold
  NPTX2 hybridization intensity over baseline: around 2 fold
  PDGFR hybridization intensity over baseline: 3 fold
  PTK hybridization intensity over baseline: 3 fold
SHSY-5Y cells; 150 mM ethanol
  DBH hybridization intensity over baseline: ~9 fold
  DLK hybridization intensity over baseline: ~7 fold
  GABA-β3 hybridization intensity over baseline: 2 fold
  NPTX2 hybridization intensity over baseline: 2 fold
  PDGFR hybridization intensity over baseline: 5 fold
  PTK hybridization intensity over baseline: 2 fold
SH-SY5Y cells [1]; 3 days treatment, FIG. 4A
  DBH, DLK and NET mRNA levels: increase
  MCP-1 transcript levels: decrease
SH-SY5Y cells [1]; DBH, DLK, NET, MCP-1, data not shown
  time after addition at which changes in expression were detected: ≤ 24 h
[2]; 150 mM ethanol for 72 h, FIG. 4B
  DBH protein expression: enhancement in DBH protein expression
[2]; continued presence of ethanol, data not shown
  duration of increase in DBH protein levels: sustained up to 7 days treatment
[3]
  MCP-1 peptide release in the culture media: decrease in peptide release
SH-SY5Y cells [4]
  NE levels in the media: 23.554+/−5.218 ng/mg of protein
[5]; 6 or 24 h after single dose 4 g/kg i.p., data not shown
  DBH mRNA levels in the brain: No difference in expression
[5]; 6 h after single dose 4 g/kg i.p., data not shown
  DBH mRNA levels in the adrenal: No difference in expression
[5]; 24 h after single dose 4 g/kg i.p., FIG. 5
  DBH mRNA levels in the adrenal: significant increase
[6]
  plasma norepinephrine levels: dose-dependent elevation
[7]; 100 mM ethanol
  E100, change in expression of ARHGDIB (L20688): −0.7
  E100, change in expression of CPE (X51405): 1.2
  E100, change in expression of DBH (X13255): 5.4
  E100, change in expression of DLK1 (T49117): 2.9
  E100, change in expression of DUSP4 (U21108): 0.9
  E100, change in expression of E2-28.4 (EST) (R01227): 1
  E100, change in expression of EGFR (H02836): 1
  E100, change in expression of EST H08637 (NF1): 0.9
  E100, change in expression of EST R47985 (Acrosin): −1.3
  E100, change in expression of EST R60751 (IEP2): −0.8
  E100, change in expression of EST R73461 (TCRbeta): −3.7
  E100, change in expression of EST T94087 (JNK2): 1
  E100, change in expression of FKHL1 (R60332): −0.9
  E100, change in expression of GCH1 (U19523): 1.6
  E100, change in expression of GLRX (X76648): 1.4
  E100, change in expression of GPI-H (L19783): −0.6
  E100, change in expression of GSTM4 (M99422): 0.9
  E100, change in expression of HIRH (H14506): −1
  E100, change in expression of IL7 (J04156): −0.7
  E100, change in expression of KRT18 (T53412): −2.3
  E100, change in expression of LUM (U21128): 1.6
  E100, change in expression of MCP1 (M26683): −1.9
  E100, change in expression of MGP (H52207): −0.7
  E100, change in expression of NAIP (U19251): 0.9
  E100, change in expression of NEF3 (Y00067): 1.4
  E100, change in expression of NFIB2/3 (H91713): 2.1
  E100, change in expression of NP (T47964): 0.5
  E100, change in expression of NPTX2 (U29195): 0.9
  E100, change in expression of NSMAF (R41765): 1.1
  E100, change in expression of PGY1 (M29447): 2.3
  E100, change in expression of PMSCL2 (R40490): 0.7
  E100, change in expression of PRHX (X67235): 1
  E100, change in expression of RAC2 (H42477): −0.9
  E100, change in expression of RPL14 (R82938): −0.5
  E100, change in expression of SLC6A2(NET) (M65105): 2.6
  E100, change in expression of SOX9 (Z46629): −1.2
  E100, change in expression of SPARC (T54767): −1.3
  E100, change in expression of SSH3BP1 (R34245): 0.7
  E100, change in expression of TMPO (U09086): 1
  E100, change in expression of TP53 (X54156): −1.1
  E100, change in expression of ZNF42 (R83364): −1.9
[7]; [9]
  DBH mRNA levels, dose dependence: changed in a dose-dependent manner
  DLK, NET and MCP-1 gene expression, dose dependence: showed a dose-response
[7]; 100 mM ethanol, FIG. 3A
  expression of gene encoding α7 subunit of the neuronal acetylcholine receptor (nAChRα7): downregulated

## Clc1cccc(Cl)c1N=C1NCCN1 [clonidine]
Noradrenergic receptors
  ethanol withdrawal syndrome: strongly reduce ethanol withdrawal syndrome

## CO [methanol, reference compound]
SHSY-5Y cells
  Co-Activ increase in hybridization: 1.5 fold
  MAP4 increase in hybridization: > 2 fold
  Na/H Anti increase in hybridization: 1.5 fold
  ZNFP increase in hybridization: 1.5 fold

## CCCO [propanol, reference compound]
SHSY-5Y cells
  Co-Activ increase in hybridization: > 6.5 fold
  MAP4 increase in hybridization: 4 fold
  Na/H Anti increase in hybridization: 6.5 fold
  ZNFP increase in hybridization: > 6 fold

## CCCC(=O)Nc1ncnc2c1ncn2[C@@H]1O[C@@H]2COP(=O)(O)O[C@H]2[C@H]1OC(=O)CCC [db-cAMP, dibutyryl-cyclic AMP]
SH-SY5Y cells [8]
  time after treatment at which effects were significant: ≤ 24 h
